Laboratory results from ChEMBL document CHEMBL1201862, “PubChem BioAssay data set” (2004).
Where a name gives a salt, the structure may show the parent alone. Active and inactive are the calls of the source.

Columns and labels:
[1] = growth inhibition of yeast DHODH-expressing 3D7 parasites – SYBR Green, dry powder samples, dose response (AID 1159570); format: functional, cell-based;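 note: parasite growth measured after 72 hours of compound exposure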
[2] = growth inhibition of PfATP4-mutant resistant parasites – NITD609-resistant line, SYBR Green, dry powder, dose response (AID 1159571); format: functional, cell-based;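 note: parasites synchronized at ring stage by sorbitol before testing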
[3] = toxicity to human HepG2 hepatoma cells – cell-based, plate reader, dry powder samples, cytotoxicity control, dose response (AID 1159569); format: functional;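 note: inhibitor potency with signal falling toward the positive control level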
[4] = Dd2 malaria parasite growth inhibition potency – SYBR Green, dry powder samples, dose response (AID 1159566); format: functional, cell-based;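 note: potency for growth inhibition with lower SYBR green DNA signal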
[5] = test system: Vero; assay: mammalian cell viability reduction – secondary assay, cytotoxicity control for West Nile virus antiviral project, dose response (AID 1650); format: functional; conditions: Chlorocebus sabaeus
[6] = test system: Vero; assay: inhibition of WNV-induced cytopathic effect – cell-based, CPE readout (AID 1621); format: functional; conditions: Chlorocebus sabaeus
[7] = target: T1, Fibrinogen beta chain (Homo sapiens, UniProt P02675); assay: Fluorescence polarization-based biochemical high throughput dose response assay to identify inhibitors that disrupt the binding of a cyclic peptide (Tn6) to the fibrin proteolytic product D-Dimer and fragment E complex [DD(E )].
[8] = target: T1, Fibrinogen beta chain; assay: Fluorescence polarization-based biochemical high throughput dose response assay to identify inhibitors that disrupt the binding of a cyclic peptide (Tn7) to the fibrin proteolytic product D-Dimer and fragment E complex [DD(E )].
[9] = YAP1 overexpression rescue of CTGF inhibition – DLD1 cells, RT-qPCR, cherry-pick, mechanism study for YAP1 pathway inhibitor project, dose response (AID 1053127); format: functional, cell-based; conditions: DLD-1
[10] = CTGF mRNA reduction in DLD1 cells – cell-based, DLD1 colon cancer, RT-qPCR, cherry-pick, dose response (AID 1053122); format: functional; conditions: Cancer cell lines
[11] = OVCAR-3 cell viability loss – plate reader, dry powder samples, PAX8 inhibitor project, dose response (AID 743044); format: functional, cell-based
[12] = target: Paired box protein Pax-8 (Homo sapiens, UniProt Q06710); assay: PAX8 transcriptional activity inhibition in RMG-I – RMG-I cells, luciferase, cherry-pick, dose response (AID 687027); format: functional, cell-based;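 note: luciferase reporter driven by Pax8 target thyroperoxidase promoter measured by SteadyGlo luminescence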
[13] = Reduced DLD-1 viability, concentration-response, CellTiter-Glo luminescence (AID 1117352); format: functional
[14] = cytotoxicity toward HCT116 cells – cell-based, CellTiter-Glo luminescence, IC50, dose response (AID 1117332); format: functional; conditions: HCT-116
[15] = RKO cell viability reduction, dose response, CellTiter-Glo luminescence (AID 1117322); format: functional
[16] = CellTiter-Glo luminescence survival assay, SW480 colon tumor line, concentration-response curve, half-maximal inhibitory concentration (AID 1117338); format: functional
[17] = cytotoxicity toward Colo320 cells – cell-based, CellTiter-Glo luminescence, IC50, dose response (AID 1117334); format: functional; conditions: COLO 320
[18] = SNU-C1 cell viability reduction, dose response, CellTiter-Glo luminescence (AID 1117323); format: functional, cell-based
[19] = cytotoxicity toward HT-29 cells – cell-based, CellTiter-Glo luminescence, IC50, dose response (AID 1117330); format: functional
[20] = target: Prothrombin (Bos taurus, UniProt P00735); assay: thrombin protease inhibitors – biochemical, fluorescence polarization, uHTS hits, dose response (AID 602369); format: functional
[21] = target: DNA dC->dU-editing enzyme APOBEC-3A (Homo sapiens, UniProt P31941); assay: A3A deaminase inhibition for selectivity – biochemical, dose response (AID 504722); format: functional
[22] = target: T2, Carboxy-terminal domain RNA polymerase II polypeptide A small phosphatase 1 (Homo sapiens, UniProt Q9GZU7); assay: CTDSP1 inhibitors, concentration-response, biochemical, absorbance readout, ultra-high-throughput screen actives (AID 540297); format: functional
T2 sequence (Q9GZU7 whole entry): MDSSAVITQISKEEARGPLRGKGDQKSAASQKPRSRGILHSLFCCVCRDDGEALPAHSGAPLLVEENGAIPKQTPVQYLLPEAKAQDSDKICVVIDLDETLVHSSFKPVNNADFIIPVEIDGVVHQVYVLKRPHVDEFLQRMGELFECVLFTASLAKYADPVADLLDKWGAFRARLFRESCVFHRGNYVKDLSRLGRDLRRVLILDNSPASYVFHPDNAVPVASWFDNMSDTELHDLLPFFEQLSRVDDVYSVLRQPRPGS

[23] = target: E3 ubiquitin-protein ligase UHRF1 (Homo sapiens, UniProt Q96T88); assay: Counterscreen for inhibitors of 5-meCpG-binding domain protein 2 (MBD2): TRFRET-based biochemical high throughput dose response assay to identify inhibitors of binding of ubiquitin-like with PHD and ring finger domains 1 (UHRF1) to methylated oligonucleotide.
[24] = target: Eukaryotic translation initiation factor 4E (Mus musculus, UniProt P63073); assay: blockers of eIF4G binding by eIF4E – biochemical, TR-FRET, dose response (AID 855); format: functional;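 note: potency for disrupting eIF4E binding to eIF4GI seen as loss of FRET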
[25] = target: 72 kDa type IV collagenase (Homo sapiens, UniProt P08253); assay: Dose Response validation of uHTS RPN11 inhibitor hits using a MMP-2 Fluorescence assay.; format: functional
[26] = target: DNA dC->dU-editing enzyme APOBEC-3G (Homo sapiens, UniProt Q9HC16); assay: Dose Response confirmation of small molecule APOBEC3G DNA Deaminase Inhibitors via a fluorescence-based single-stranded DNA deaminase assay. [Related pubchem assays (depositor defined):AID493012, AID493028]; format: functional
[27] = target: 26S proteasome non-ATPase regulatory subunit 14 (Homo sapiens, UniProt O00487); assay: inhibition of proteasome subunit RPN11 – biochemical, fluorescence polarization, uHTS hits, confirmation (AID 602368); format: functional
[28] = target: DNA (cytosine-5)-methyltransferase 1 (Homo sapiens, UniProt P26358); assay: inhibition of DNA methylation by DNMT1 – biochemical, fluorescent molecular beacon, confirmation (AID 602386); format: functional
[29] = target: Peroxisome proliferator-activated receptor gamma/Nuclear receptor coactivator 1 (Homo sapiens, UniProt P37231); format: functional;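 note: agonist potency as compounds enhance coactivator SRC-1 recruitment to PPARgamma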
[30] = target: Peroxisome proliferator-activated receptor gamma/Nuclear receptor coactivator 3 (Homo sapiens, UniProt P37231); format: functional;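 note: agonist potency for raising coactivator recruitment to the receptor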
[31] = target: Genome polyprotein (Hepatitis C virus, UniProt Q2Q167); assay: disruption of hepatitis C core self-association – biochemical, TR-FRET, dose response (AID 2159); design: species or system Hepacivirus hominis;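 note: blocks dimerization of HCV core protein measured by TR-FRET between tagged core106 pairs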
[32] = target: Peroxisome proliferator-activated receptor gamma/Nuclear receptor coactivator 2 (Homo sapiens, UniProt P37231); format: functional;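 note: agonist potency for raising coactivator recruitment to the receptor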
[33] = target: Aryl hydrocarbon receptor (Homo sapiens, UniProt P35869); assay: Luminescence-based cell-based high throughput dose response assay for activators of the Aryl Hydrocarbon Receptor (AHR). [Related pubchem assays: 2796 (Primary screen (AHR activators in singlicate)), 2845 (Confirmation screen (AHR activators in triplicate)), 434939 (Counterscreen (PXR activators in triplicate)), 2804 (Summary (AHR activators))]; format: ADME

T1 sequence (P02675 whole entry, the tested form may be a part): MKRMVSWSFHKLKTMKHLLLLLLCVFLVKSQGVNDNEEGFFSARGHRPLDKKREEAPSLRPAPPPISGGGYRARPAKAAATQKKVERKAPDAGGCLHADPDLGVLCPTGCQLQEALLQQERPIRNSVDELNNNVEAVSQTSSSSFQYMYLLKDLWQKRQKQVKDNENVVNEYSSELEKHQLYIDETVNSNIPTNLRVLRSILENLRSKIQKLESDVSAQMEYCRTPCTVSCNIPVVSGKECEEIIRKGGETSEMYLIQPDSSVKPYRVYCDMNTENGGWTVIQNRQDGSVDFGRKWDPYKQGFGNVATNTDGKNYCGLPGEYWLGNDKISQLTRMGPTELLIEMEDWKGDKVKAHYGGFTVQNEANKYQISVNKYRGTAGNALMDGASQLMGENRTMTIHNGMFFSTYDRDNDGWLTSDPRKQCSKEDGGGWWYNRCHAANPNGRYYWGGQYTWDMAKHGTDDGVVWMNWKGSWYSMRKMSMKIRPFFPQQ
Sequence of 26S proteasome non-ATPase regulatory subunit 14 (O00487 whole entry): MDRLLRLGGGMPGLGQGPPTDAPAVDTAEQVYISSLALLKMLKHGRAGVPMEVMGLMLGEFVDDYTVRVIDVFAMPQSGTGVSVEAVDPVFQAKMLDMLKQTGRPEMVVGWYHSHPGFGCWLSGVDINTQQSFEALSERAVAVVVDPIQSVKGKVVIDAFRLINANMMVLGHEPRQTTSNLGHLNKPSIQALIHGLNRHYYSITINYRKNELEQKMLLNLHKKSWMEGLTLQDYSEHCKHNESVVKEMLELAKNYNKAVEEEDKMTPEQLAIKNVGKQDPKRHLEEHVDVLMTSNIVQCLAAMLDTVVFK
Sequence of Eukaryotic translation initiation factor 4E (P63073 whole entry): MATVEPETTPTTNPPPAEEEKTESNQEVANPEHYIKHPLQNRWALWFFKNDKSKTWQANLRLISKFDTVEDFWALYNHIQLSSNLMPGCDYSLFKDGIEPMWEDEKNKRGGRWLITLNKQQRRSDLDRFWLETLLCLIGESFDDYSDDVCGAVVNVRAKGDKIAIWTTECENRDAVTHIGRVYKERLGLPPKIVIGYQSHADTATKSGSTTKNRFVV
Sequence of Genome polyprotein (Q2Q167 whole entry): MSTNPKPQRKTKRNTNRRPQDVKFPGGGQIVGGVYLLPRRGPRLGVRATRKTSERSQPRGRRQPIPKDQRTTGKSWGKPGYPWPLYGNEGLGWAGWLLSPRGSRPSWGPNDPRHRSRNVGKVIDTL
Sequence of Paired box protein Pax-8 (Q06710 whole entry): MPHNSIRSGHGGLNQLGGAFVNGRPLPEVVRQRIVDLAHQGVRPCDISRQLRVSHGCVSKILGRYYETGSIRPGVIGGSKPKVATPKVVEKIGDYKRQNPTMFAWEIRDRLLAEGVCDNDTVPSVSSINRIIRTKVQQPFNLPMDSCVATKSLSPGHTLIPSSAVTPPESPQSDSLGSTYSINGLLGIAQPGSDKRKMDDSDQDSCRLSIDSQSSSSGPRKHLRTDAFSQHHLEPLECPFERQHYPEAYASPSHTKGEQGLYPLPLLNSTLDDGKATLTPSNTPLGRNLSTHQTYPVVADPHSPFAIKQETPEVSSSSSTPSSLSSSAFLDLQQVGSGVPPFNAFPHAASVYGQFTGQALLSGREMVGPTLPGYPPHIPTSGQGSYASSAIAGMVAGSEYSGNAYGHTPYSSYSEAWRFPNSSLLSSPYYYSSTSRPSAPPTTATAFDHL
Sequence of DNA dC->dU-editing enzyme APOBEC-3A (P31941 whole entry, the tested form may be a part): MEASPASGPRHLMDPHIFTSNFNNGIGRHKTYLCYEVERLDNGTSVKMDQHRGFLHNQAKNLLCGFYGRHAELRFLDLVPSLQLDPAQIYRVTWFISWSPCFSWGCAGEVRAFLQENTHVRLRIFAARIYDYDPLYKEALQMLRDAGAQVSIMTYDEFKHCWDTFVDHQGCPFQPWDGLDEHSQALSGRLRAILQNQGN
Sequence of Peroxisome proliferator-activated receptor gamma/Nuclear receptor coactivator 1 (P37231 whole entry): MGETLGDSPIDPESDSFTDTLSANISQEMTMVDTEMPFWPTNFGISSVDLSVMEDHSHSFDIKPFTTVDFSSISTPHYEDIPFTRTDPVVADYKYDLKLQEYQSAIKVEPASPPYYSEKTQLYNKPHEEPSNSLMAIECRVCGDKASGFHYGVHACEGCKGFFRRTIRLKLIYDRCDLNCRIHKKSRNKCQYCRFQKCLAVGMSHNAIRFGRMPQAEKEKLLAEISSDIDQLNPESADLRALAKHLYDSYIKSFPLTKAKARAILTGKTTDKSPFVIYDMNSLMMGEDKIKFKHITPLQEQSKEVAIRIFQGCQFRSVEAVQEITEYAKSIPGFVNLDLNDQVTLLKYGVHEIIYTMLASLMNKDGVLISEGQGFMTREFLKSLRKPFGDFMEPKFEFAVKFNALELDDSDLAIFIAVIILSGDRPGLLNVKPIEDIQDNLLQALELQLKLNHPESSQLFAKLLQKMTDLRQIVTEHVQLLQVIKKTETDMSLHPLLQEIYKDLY
Sequence of Peroxisome proliferator-activated receptor gamma/Nuclear receptor coactivator 1 (Q15788 whole entry, further chain): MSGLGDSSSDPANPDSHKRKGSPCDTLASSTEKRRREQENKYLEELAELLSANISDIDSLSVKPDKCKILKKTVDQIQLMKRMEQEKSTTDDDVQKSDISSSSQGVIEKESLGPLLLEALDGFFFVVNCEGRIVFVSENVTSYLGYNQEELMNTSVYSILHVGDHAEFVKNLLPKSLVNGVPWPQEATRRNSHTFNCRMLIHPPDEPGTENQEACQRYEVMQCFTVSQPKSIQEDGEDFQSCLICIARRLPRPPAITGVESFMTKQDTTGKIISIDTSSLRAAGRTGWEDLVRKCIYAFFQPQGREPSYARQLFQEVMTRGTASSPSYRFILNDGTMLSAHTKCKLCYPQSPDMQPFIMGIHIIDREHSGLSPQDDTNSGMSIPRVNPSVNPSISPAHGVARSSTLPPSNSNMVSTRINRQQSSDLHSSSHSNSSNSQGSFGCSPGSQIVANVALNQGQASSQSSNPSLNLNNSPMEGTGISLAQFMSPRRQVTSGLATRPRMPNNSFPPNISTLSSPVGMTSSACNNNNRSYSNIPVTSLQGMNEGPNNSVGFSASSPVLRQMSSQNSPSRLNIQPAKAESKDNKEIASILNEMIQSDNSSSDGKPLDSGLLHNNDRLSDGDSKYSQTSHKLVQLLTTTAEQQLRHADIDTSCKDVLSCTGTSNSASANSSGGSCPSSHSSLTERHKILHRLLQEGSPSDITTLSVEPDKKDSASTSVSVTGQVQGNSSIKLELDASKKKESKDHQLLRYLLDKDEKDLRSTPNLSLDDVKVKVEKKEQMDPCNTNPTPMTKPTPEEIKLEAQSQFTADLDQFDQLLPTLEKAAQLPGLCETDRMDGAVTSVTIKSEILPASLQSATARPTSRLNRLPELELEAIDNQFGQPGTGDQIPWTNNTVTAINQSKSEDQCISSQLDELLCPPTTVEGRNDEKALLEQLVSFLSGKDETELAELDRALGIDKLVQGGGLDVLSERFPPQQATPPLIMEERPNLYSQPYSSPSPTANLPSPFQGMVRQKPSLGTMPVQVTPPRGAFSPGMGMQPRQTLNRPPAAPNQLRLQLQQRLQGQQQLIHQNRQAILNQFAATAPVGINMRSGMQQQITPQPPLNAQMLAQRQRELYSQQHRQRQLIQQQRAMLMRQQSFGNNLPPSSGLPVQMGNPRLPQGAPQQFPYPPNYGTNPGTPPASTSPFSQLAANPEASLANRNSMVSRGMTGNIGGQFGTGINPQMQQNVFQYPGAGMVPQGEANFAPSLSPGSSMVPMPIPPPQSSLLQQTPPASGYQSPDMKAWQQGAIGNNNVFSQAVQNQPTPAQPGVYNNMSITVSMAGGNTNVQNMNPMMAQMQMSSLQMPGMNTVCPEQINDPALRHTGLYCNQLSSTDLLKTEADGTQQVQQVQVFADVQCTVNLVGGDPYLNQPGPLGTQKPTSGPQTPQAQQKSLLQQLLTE
Sequence of DNA dC->dU-editing enzyme APOBEC-3G (Q9HC16 whole entry): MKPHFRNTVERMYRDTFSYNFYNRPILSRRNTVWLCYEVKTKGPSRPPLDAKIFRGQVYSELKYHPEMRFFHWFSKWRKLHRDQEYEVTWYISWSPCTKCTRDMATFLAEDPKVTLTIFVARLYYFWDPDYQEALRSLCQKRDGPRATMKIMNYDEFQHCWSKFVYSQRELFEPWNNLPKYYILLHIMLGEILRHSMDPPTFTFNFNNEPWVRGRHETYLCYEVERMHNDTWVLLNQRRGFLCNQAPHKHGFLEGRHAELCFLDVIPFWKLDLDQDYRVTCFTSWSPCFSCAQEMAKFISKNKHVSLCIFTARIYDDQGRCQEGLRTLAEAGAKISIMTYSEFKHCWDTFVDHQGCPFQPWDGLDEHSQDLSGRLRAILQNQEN
Sequence of E3 ubiquitin-protein ligase UHRF1 (Q96T88 whole entry, the tested form may be a part): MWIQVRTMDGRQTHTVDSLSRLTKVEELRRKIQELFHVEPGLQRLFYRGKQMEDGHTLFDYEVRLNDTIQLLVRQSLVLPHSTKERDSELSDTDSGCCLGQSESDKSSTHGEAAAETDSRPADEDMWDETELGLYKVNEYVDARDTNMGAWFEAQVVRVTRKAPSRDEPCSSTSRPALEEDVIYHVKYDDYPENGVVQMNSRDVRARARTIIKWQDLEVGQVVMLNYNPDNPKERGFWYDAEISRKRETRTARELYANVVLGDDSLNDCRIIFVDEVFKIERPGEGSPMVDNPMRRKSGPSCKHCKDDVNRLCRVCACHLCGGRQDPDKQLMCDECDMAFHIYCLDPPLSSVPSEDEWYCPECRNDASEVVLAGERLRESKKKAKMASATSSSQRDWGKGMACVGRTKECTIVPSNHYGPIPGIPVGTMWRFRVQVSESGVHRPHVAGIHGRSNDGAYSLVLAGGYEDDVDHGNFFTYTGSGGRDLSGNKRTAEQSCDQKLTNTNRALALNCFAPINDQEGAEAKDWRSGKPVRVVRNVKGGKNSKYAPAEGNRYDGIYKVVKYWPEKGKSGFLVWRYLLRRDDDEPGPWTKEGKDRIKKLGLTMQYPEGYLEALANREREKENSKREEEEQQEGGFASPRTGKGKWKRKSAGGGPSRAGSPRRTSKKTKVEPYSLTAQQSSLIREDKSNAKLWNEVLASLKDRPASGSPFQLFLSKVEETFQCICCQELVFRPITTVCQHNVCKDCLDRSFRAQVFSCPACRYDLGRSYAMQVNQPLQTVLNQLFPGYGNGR

C[C@H]1CN([C@@H](C)CO)C(=O)c2c(c3ccccc3n2C)-c2ccccc2CO[C@H]1CN(C)S(=O)(=O)c1ccc(F)cc1
AC50 [1]: 0.819 µM (active)
AC50 [2]: 1.05 µM (active)
AC50 [3]: 50.9 µM (active)
AC50 [4]: 0.47 µM (active)

CCC1CCCCN1CCCNC(=O)c1cc2c(Cl)nc3ccccc3c2s1 (stereo not drawn)
CC50 [5]: 12.7 µM (active)
IC50 [6]: 8.75 µM (active)

CN1CCS/C1=C/C=C1/SC(=S)N(Cc2ccccc2)C1=O
IC50 [7]: 10.2 µM (inactive)
IC50 [8]: > 83.3 µM (inactive)

COc1ccccc1C#Cc1ccc([C@@H]2[C@@H](CO)N3CCCCN(C(=O)C4CCC4)C[C@@H]23)cc1
AC50 [9]: 17.7 µM (active)
AC50 [10]: 15.9 µM (active)

C[C@@H]1CN([C@H](C)CO)S(=O)(=O)c2ccc(C#Cc3ccc(F)cc3)cc2O[C@H]1CN(C)C(=O)NC1CCCCC1
AC50 [11]: 48.1 µM (active)
AC50 [12]: 9.47 µM (active)

Cc1cccc(Cc2c[nH]cn2)c1C [DETOMIDINE HYDROCHLORIDE]
IC50 [13]: > 20 µM (inactive)
IC50 [14]: > 20 µM (inactive)
IC50 [15]: > 20 µM (inactive)
IC50 [16]: > 20 µM (inactive)
IC50 [17]: > 20 µM (inactive)
IC50 [18]: > 20 µM (inactive)
IC50 [19]: > 20 µM (inactive)

Cc1c2cnn(CC(=O)Nc3c(F)c(F)cc(F)c3F)c(=O)c2c(C)n1Cc1ccccc1F
IC50 [20]: 50.5 µM (active)
IC50 [21]: 49.3 µM (active)
IC50 [22]: 2.96 µM (active)
IC50 [23]: > 43.8 µM (inactive)
IC50 [24]: 50 µM (inactive)
IC50 [25]: > 100 µM (inactive)
IC50 [26]: 9.31 µM (active)
IC50 [27]: 19.5 µM (active)
IC50 [28]: 7.6 µM (active)

Cc1cc(OCC(=O)Nc2cc(-c3nn4c(C)nnc4s3)ccc2C)ccc1Cl
EC50 [29]: 9.05 µM (active)
EC50 [30]: 8.97 µM (active)
IC50 [31]: > 49.8 µM (not active)
EC50 [32]: 10.1 µM (not active)

COc1ccccc1NC(=O)Nc1cccnc1
EC50 [33]: 2.25 µM (active)
